Article PMC11939361, “diAcCA, a Pro-Drug for Carnosic Acid That Activates the Nrf2 Transcriptional Pathway, Shows Efficacy in the 5xFAD Transgenic Mouse Model of Alzheimer’s Disease” (Antioxidants, 2025)
“Also recorded” adds a separate entry of the source. Like-named read-outs stand apart in the source and are kept apart here.

Legend:
[1] = Shelf life / stability of the compound over time; type: physicochemical; conditions: storage (CA: even if kept in the dark and cold)
[2] = system: WT 6XC57BL6 mice; test: Non-GLP toxicology analysis of esophagus and stomach (H&E, inflammation); type: in vivo, mouse; conditions: for overall safety / toxicology: in vivo
Protocol: Starting at 5 months of age, WT 6XC57BL6 mice were given either the highest dose of diAcCA used in this study (50 mg/kg) or olive oil vehicle three times a week for three months by oral gavage/PO. Following the treatment, the esophagus and stomach were isolated, and 5 μm-thick coronal and sagittal sections were cut from the esophagus. The stomach was opened along the greater curvature, cleaned with PBS, and pinned flat. Two 5 μm-thick sagittal sections were collected, one extending from the cardiac region to the duodenum, and the other from the forestomach to the fundic area. All sections were made using a rotary microtome (HM325-#387821, Fisher Scientific) and mounted on SuperfrostPlus slides (#1255015, Fisher brand). The sections were stained by hematoxylin and eosin stain (H&E) [Abcam H&E kit, ab245880], mounted with permount, dried overnight at room temperature, and then imaged. Acquired images were analyzed in a masked fashion for inflammation by a board-certified pathologist.
Extensive toxicity and safety data are already published on CA [47, 48]. […] Accordingly, in light of our PK findings, we selected a dose of 50 mg/kg to assess safety of the drug after oral administration to WT mice. We performed a non-GLP toxicology analysis of vehicle (olive oil) or drug administered PO three times a week for 3 months starting at 5 months of age. Following this period, sections from the stomach and esophagus were stained with H&E and examined blindly by a board-certified toxicologic pathologist.
Supplementary Figure S2. Pharmacokinetic and safety studies for diAcCA. […]
(D, E) Non-GLP toxicology analysis on WT mice after treatment with vehicle ( olive oil) or the highest concentration of diAcCA (50 mg/ kg) used in these experiments.
Representative esophagus and stomach lining sections (D) stained by hematoxylin & eosin (H&E) from two groups of mice. Scale: 500 μm. Bar graph (E) quantifying inflammation in esophagus (periesophagitis) and stomach (neutrophilic gastritis) by a standard tox inflammatory score ranging from 0 to 4 (0: inflammation within normal limits, 1: minimal […]
baseline inflammation in WT mice (n =3 animals in each group).
(1 picture or pasted object on this page, not shown here)

[3] = system: DAM-related genes in 5xFAD mouse brain; test: nCounter NanoString neuropathology gene expression panel; type: in vivo
Protocol: (§1) diAcCA or control vehicle was administered three times per week for 3 months to 5xFAD Tg or WT littermate control mice starting at approximately 5 months of age by oral gavage (designated here as “per os” or PO). Three different doses were used (10 mg/kg, 20 mg/kg, or 50 mg/kg). diAcCA was dissolved in olive oil vehicle, a non-polar organic solvent. For vehicle control, we administered olive oil alone. A total of 45 animals were used in this study, with 7–8 animals in each group.
The hippocampus/cortex were isolated from the brain and RNA isolation was performed immediately using the Quick-RNA Miniprep kit (76211-580, VWR, Radnor, PA, USA). RNA was then analyzed by the Salk Institute Single-Cell & Spatial Omics Core for the nCounter Neuropathology panel (NanoString, Bruker Spatial Biology, Inc., Seattle, WA, USA). The list of genes included in the NanoString analysis is provided as Supplementary Information (Table S3). The analysis was performed using the following packages on R studio software version 4.2.3: readr 2.1.5, dplyr 1.1.4, clusterProfiler 4.6.2, org.mm.eg.db 3.16.0, ggplot2 3.5.1, and stringr 1.5.1.
To elucidate the molecular underpinnings of the effect of diAcCA on neuroinflammation, we next analyzed disease-associated microglia (DAM) signatures in WT and 5xFAD mouse brains using nCounter® biomarker analysis (NanoString, Bruker Spatial Biology, Inc., […]). RNA was isolated from the hippocampus/cortex of WT and 5xFAD mice that had received three-month vehicle or diAcCA treatment, and a NanoString neuropathology gene expression panel was performed (Figure 4).

[4] = system: 5xFAD mice; test: Morris water maze probe test; type: in vivo, mouse; conditions: for Morris water maze probe test, time in the platform quadrant zone: compared to WT control mice; for Morris water maze probe test, percentage of time in the target quadrant / Morris water maze probe test, time to first enter the platform zone: compared to WT controls
Protocol: as §1
The Morris water maze test is used to evaluate spatial learning and memory skills in rodents. In the experimental setup, mice are placed in a circular tank containing opaque water maintained at a consistent temperature of 21 ± 1 °C. The mice undergo 2 trials each day for a period of 4 days during which they are trained to find a hidden platform placed somewhere within the tank. The platform acts as an escape for the mice from swimming. The starting point of the mice in the tank is randomized; however, the location of the platform remains unchanged for a given mouse. After entering the water, the mice are given a maximum of 90 s to navigate to the platform and climb it. If a mouse is unable to find the platform in this duration, the experimenter offers gentle guidance to help it in reaching the platform. On day 5, after the training phase is over, a “probe trial” is conducted in which the platform is removed from the water maze. The mice are allowed to swim for a period of 60 s to observe if they learned to use spatial cues to navigate to safety (i.e., swim to the area in which the platform had been located and then spend more time in this quadrant of the pool than the other quadrants). After each trial, the mice are given a 10 min rest period in which they are transferred to a new cage with a warm towel. Data are analyzed using Noldus EthoVision software (version XT 17, Leesburg, VA, USA) with parameters measured for “latency to escape” for the acquisition trials and “quadrant time” as well as “distance and velocity of swimming” in the probe test.
To delineate the effect of diAcCA on spatial memory, we performed the Morris water maze probe test, a widely used assessment for evaluating hippocampal-dependent memory. After diAcCA or vehicle treatment of WT and 5xFAD mice for 3 months starting at 5 months of age, the animals were initially trained for […] to ensure learning of the spatial memory task, i.e., swimming to the location of a hidden platform in the opaque water maze that the mice could stand on. Subsequently, their memory for the task was measured using the “probe test”, monitoring how well each mouse recalled the location of the platform once it had been removed from the swimming tank. This was assessed by the amount of time spent in the proper quadrant of the tank that previously housed the platform (the “target” quadrant) vs. other quadrants.

[5] = Brain levels of CA from prior plasma/brain PK data; type: in vivo; conditions: for Cmax: mouse, read-out: predicted Cmax in the brain
Protocol: We also determined the stability and bioavailability of diAcCA compared to CA. For this purpose, individual mice were administered CA or diAcCA IV or via oral gavage/PO. For CA, the doses were 3 mg/kg for the IV route and 10 mg/kg for oral gavage/PO, and for diAcCA 10 mg/kg by oral gavage/PO. Plasma concentrations were evaluated at ten different time points over the next 72 h (raw data shown in Tables S1 and S2, Supplementary Materials).
The extensive existing PK data obtained on plasma and brain samples for CA, correlated with prior in vivo efficacy data for CA [26, 33, 49], allowed us to calculate the therapeutic dose range that we wanted to test here for diAcCA.

CC(=O)Oc1c(C(C)C)cc2c(c1OC(C)=O)[C@@]1(C(=O)O)CCCC(C)(C)[C@@H]1CC2 [diAcCA]
shelf life / stability over time [1]: stable in our hands for over two years | shelf life / stability over time ([1]; listed as diAcCa): stable shelf life (of over two years) | baseline inflammation in the esophagus (periesophagitis), H&E ([2]; WT mice, 50 mg/kg PO three times a week for 3 months vs olive oil vehicle, n = 3, 50 mg/kg): appeared to improve; also recorded: improved baseline inflammation in the esophagus | overall safety / toxicology ([2]; mouse): as safe or safer than CA | overall safety / toxicology ([2]; mouse, listed as diAcCa): no toxicological issues | toxicity to the digestive system after oral administration ([2]; mouse): no toxicity was noted | expression of DAM genes C3 and Igf1 ([3]; 5xFAD brain, 20 or 50 mg/kg vs vehicle, n = 3): significantly downregulated | DAM signature (heatmap of DAM-related genes) ([3]; 5xFAD hippocampus/cortex RNA, three-month treatment, n = 3): dose-dependent decrease in DAM signature | GO biological pathway analysis of upregulated and downregulated genes ([3]; diAcCA-treated 5xFAD brain vs vehicle-treated): upregulation of genes enriched in pathways associated with neuroprotection | Morris water maze probe test, time in the platform quadrant zone ([4]; 10 mg/kg and 20 mg/kg): spent significantly less time in the platform quadrant zone compared to WT control mice | Morris water maze probe test, percentage of time in the target quadrant ([4]; 10 mg/kg): spent significantly less time in the target quadrant | Morris water maze probe test, time to first enter the platform zone ([4]; 10 mg/kg): took significantly more time to first enter the platform zone compared to WT controls | Morris water maze probe test, percentage of time in the target quadrant ([4]; 20 mg/kg and 50 mg/kg): spent a similar percentage of time in the target and other quadrants as the WT controls | Morris water maze probe test, time to first enter the platform zone ([4]; 20 mg/kg and 50 mg/kg): took a similar amount of time compared to WT controls | Morris water maze probe test, time in the platform quadrant zone ([4]; 50 mg/kg): spent similar amount of time in the platform quadrant as WT control mice | Morris water maze probe test, performance (time in target quadrant, time to reach platform zone) ([4]; ≥20 mg/kg, or, for total time spent in the target quadrant, 50 mg/kg): performed significantly better | time to reach neurotherapeutic levels in the brain ([5]; after conversion of diAcCA to CA): less than 1 h | Cmax ([5]; diAcCA 10 mg/kg PO): ~600 nM | Cmax ([5]; diAcCA 20 mg/kg PO): ~1200 nM | Cmax ([5]; diAcCA 50 mg/kg PO): ~3000 nM
